# From ChEMBL document CHEMBL4431321, “Profiling of Flavonol Derivatives for the Development of Antitrypanosomatidic Drugs” (J Med Chem, 2016)
# Activity calls are given as the source filed them. No cut-off for these calls is given here.
# What was measured:
# [1] = Drug uptake in BALB/c mouse plasma at 1 mg/kg, iv administered as single dose through encapsulation in PLGA nanoparticles by HPLC analysis; type: ADME, organism-based; conditions: in vivo
# [2] = Cytotoxicity against human THP1 cells compound treated with cyclodextrins after 72 hrs by MTT assay; type: cell-based; conditions: THP-1 cells, read-out: NOAEL
# [3] = Inhibition of Trypanosoma brucei PTR1 using H2B as substrate incubated for 10 mins followed by addition of NADPH measured for 10 to 50 mins
# Dihydrofolate reductase = Dihydrofolate reductase (Homo sapiens, UniProt P00374); experiment: Inhibition of human DHFR using folic aid as substrate by spectrophotometric analysis
# [4] = system: Trypanosoma brucei brucei; experiment: Antitrypanosomal activity against Trypanosoma brucei brucei Lister 427 bloodstream forms assessed as synergy coefficient at 1.25 to 5 uM after 72 hrs in presence of MTX by resazurin-based assay; type: functional
# Cytochrome P450 2D6 = Cytochrome P450 2D6 (Homo sapiens, UniProt P10635); experiment: Inhibition of human microsomal CYP2D6 expressed in baculovirus infected BTI-TN-5B1-4 cells incubated for 30 mins by luciferase assay; type: ADME
# [5] = Cytotoxicity against human THP1 cells compound treated through encapsulation in PLGA nanoparticles after 72 hrs by MTT assay; type: cell-based; conditions: THP-1 cells, read-out: NOAEL
# [6] = target: Voltage-gated inwardly rectifying potassium channel KCNH2 (Homo sapiens, UniProt Q12809); experiment: Inhibition of human ERG in membranes incubated for 2 hrs by fluorescence polarization assay
# A549 = experiment: Cytotoxicity against human A549 cells at 100 uM after 48 hrs by cell titer glo assay; type: cell-based; conditions: a549, 48 h
# Cytochrome P450 2C19 = Cytochrome P450 2C19 (Homo sapiens, UniProt P33261); experiment: Inhibition of human microsomal CYP2C19 expressed in baculovirus infected BTI-TN-5B1-4 cells incubated for 30 mins by luciferase assay; type: ADME
# Trypanosoma brucei [7] = experiment: Inhibition of Trypanosoma brucei PTR1 at 50 uM using H2B as substrate incubated for 10 mins followed by addition of NADPH measured for 10 to 50 mins
# Cytochrome P450 2C9 = Cytochrome P450 2C9 (Homo sapiens, UniProt P11712); experiment: Inhibition of human microsomal CYP2C9 expressed in baculovirus infected BTI-TN-5B1-4 cells incubated for 30 mins by luciferase assay; type: ADME
# in vitro = conditions: human, THP-1 cells
# Description: Selectivity index, ratio of CC50 for human THP1 cells to EC50 for Trypanosoma brucei brucei Lister 427 bloodstream forms
# [8] = system: Trypanosoma brucei brucei; experiment: Antitrypanosomal activity against Trypanosoma brucei brucei Lister 427 bloodstream forms at 10 uM after 72 hrs by resazurin-based assay; type: functional, organism-based
# Cytochrome P450 1A2 [9] = target: T1, Cytochrome P450 1A2 (Homo sapiens, UniProt P05177); experiment: Inhibition of human microsomal CYP1A2 expressed in baculovirus infected BTI-TN-5B1-4 cells incubated for 30 mins by luciferase assay; type: ADME
# T1 sequence (P05177 whole entry): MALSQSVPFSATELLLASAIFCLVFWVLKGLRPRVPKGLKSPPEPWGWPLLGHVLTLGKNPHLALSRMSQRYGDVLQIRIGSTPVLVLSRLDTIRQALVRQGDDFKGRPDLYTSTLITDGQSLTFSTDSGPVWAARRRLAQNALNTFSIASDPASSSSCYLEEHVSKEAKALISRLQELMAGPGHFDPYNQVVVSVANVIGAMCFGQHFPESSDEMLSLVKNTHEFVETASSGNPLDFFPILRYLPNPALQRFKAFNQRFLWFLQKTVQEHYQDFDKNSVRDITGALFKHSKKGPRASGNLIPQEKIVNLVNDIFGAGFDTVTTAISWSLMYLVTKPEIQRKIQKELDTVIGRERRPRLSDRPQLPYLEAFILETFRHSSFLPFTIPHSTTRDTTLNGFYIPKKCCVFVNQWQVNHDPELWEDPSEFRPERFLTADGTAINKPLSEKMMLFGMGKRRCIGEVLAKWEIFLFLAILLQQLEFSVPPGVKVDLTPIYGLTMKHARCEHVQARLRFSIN
# [10] = Drug uptake in BALB/c mouse plasma at 1 mg/kg, po administered as single dose through encapsulation in PLGA nanoparticles by HPLC analysis; type: ADME, organism-based; conditions: in vivo
# [11] = Half life BALB/c mouse blood at 1 mg/kg, iv administered as single dose by HPLC analysis; type: ADME, organism-based
# Cytochrome P450 3A4 = Cytochrome P450 3A4 (Homo sapiens, UniProt P08684); experiment: Inhibition of human microsomal CYP3A4 expressed in baculovirus infected BTI-TN-5B1-4 cells incubated for 30 mins by luciferase assay; type: ADME
# [12] = Drug uptake in NMRI mouse plasma at 4 mg/kg, po administered with cyclodextrins by HPLC analysis; type: ADME, organism-based; conditions: in vivo
# [13] = target: Thymidylate synthase (Homo sapiens) (UniProt P04818); experiment: Inhibition of human thymidylate synthase at 50 uM using folic aid as substrate by spectrophotometric analysis
# [14] = Drug uptake in BALB/c mouse blood at 1 mg/kg, iv administered as single dose after 30 mins by HPLC analysis; type: ADME, organism-based; conditions: in vivo, 0.5 h
# 786-0 = experiment: Mitochondrial toxicity in human 786-O cells incubated for 6 hrs by mitotracker red staining based-uptake method; type: cell-based; conditions: 786-0, 6 h
# [15] = Cytotoxicity against human THP1 cells after 72 hrs by MTT assay; type: cell-based; conditions: THP-1 cells
# Cytochrome P450 1A2 [16] = target: T1, Cytochrome P450 1A2; experiment: Inhibition of human microsomal CYP1A2 expressed in baculovirus infected BTI-TN-5B1-4 cells at 10 uM incubated for 30 mins by luciferase assay; type: ADME; conditions: bti-tn-5b1-4, 0.5 h, 10 µM
# [17] = system: Trypanosoma brucei brucei; experiment: Antitrypanosomal activity against Trypanosoma brucei brucei Lister 427 bloodstream forms compound treated through encapsulation in PLGA nanoparticles after 72 hrs by resazurin-based assay; type: functional, organism-based; conditions: Lister 427, 72 h
# Leishmania mexicana [18] = experiment: Inhibition of Leishmania mexicana DHFR at 50 uM using folic aid as substrate by spectrophotometric analysis
# Leishmania mexicana [19] = experiment: Inhibition of Leishmania mexicana PTR1 at 50 uM using H2B as substrate incubated for 10 mins followed by addition of NADPH measured for 10 to 50 mins
# [20] = system: Trypanosoma brucei brucei; experiment: Antitrypanosomal activity against Trypanosoma brucei brucei Lister 427 bloodstream forms after 72 hrs by resazurin-based assay; type: functional, organism-based; conditions: Lister 427, 72 h
# [21] = Solubility of compound in PBS incubated for 18 hrs by UV-visible spectroscopic analysis; type: physicochemical; conditions: buffer
# [22] = system: Trypanosoma brucei brucei; experiment: Antitrypanosomal activity against Trypanosoma brucei brucei Lister 427 bloodstream forms compound treated with cyclodextrins after 72 hrs by resazurin-based assay; type: functional, organism-based; conditions: Lister 427, 72 h
# Trypanosoma brucei [23] = experiment: Inhibition of Trypanosoma brucei DHFR at 50 uM using folic aid as substrate by spectrophotometric analysis
# WI-38 = experiment: Cytotoxicity against human WI38 cells at 100 uM after 48 hrs by cell titer glo assay; type: cell-based; conditions: wi-38, 48 h
# Chain of Cytochrome P450 2D6 (P10635 whole entry): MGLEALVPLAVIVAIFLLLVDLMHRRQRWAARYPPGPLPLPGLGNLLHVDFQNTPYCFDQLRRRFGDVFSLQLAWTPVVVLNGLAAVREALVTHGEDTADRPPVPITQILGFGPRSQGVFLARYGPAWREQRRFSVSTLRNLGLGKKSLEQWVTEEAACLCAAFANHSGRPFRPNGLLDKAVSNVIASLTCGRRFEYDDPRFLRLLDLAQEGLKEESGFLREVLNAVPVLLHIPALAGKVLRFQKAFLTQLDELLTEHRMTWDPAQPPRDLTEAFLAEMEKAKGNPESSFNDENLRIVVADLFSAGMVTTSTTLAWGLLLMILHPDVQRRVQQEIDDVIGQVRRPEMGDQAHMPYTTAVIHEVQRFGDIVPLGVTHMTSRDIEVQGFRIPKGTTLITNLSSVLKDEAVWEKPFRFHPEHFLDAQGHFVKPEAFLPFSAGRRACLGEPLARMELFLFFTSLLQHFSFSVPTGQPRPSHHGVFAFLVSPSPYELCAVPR
# Chain of Cytochrome P450 3A4 (P08684 whole entry): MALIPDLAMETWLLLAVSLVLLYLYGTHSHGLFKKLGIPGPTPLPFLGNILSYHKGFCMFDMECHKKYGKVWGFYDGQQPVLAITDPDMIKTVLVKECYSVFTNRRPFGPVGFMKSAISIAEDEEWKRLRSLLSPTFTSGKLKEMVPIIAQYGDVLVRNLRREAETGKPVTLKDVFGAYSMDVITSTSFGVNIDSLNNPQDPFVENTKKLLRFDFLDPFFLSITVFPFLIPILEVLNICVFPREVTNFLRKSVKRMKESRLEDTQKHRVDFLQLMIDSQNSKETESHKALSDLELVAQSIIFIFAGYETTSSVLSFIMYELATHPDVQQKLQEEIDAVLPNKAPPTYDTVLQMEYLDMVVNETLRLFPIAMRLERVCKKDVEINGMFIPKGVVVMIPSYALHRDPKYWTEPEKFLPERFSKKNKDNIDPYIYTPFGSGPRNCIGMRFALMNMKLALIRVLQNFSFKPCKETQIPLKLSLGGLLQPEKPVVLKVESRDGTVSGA
# Chain of Cytochrome P450 2C19 (P33261 whole entry): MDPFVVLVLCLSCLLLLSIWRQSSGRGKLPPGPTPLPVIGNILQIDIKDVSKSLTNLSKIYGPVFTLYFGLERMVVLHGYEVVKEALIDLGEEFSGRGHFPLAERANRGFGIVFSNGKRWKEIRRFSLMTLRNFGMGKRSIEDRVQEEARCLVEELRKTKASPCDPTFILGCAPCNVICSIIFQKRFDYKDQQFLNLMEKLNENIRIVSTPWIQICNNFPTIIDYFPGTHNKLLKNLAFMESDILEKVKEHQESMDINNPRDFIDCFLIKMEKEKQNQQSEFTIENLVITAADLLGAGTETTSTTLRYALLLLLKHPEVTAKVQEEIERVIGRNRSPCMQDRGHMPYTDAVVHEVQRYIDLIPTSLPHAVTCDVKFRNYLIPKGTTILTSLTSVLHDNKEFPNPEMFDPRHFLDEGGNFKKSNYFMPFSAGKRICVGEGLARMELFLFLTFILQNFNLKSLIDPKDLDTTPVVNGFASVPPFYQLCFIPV
# Chain of Cytochrome P450 2C9 (P11712 whole entry): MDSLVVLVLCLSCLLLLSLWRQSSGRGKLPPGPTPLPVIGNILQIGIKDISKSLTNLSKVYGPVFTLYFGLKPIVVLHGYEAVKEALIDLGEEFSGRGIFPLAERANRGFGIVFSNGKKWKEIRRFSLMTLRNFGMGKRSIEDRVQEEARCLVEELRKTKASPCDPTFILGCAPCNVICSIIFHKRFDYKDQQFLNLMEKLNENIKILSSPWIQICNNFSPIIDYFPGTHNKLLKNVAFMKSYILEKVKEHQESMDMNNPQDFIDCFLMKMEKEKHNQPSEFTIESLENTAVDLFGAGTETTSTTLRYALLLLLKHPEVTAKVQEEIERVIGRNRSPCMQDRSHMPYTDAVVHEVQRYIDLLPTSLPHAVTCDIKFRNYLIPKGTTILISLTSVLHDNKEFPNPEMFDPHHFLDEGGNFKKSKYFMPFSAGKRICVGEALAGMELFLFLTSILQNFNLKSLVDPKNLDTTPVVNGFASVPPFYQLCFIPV
# Chain of Thymidylate synthase (Homo sapiens) (P04818 2-313 limits assumed): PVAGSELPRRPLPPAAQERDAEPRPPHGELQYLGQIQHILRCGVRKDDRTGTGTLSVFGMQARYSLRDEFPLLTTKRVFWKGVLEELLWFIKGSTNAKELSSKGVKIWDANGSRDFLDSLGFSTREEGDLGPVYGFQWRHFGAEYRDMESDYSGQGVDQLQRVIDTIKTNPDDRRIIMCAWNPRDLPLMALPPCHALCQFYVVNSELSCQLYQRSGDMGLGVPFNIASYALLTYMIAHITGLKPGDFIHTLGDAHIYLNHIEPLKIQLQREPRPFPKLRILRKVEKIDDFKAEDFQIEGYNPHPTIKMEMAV
# Chain of Voltage-gated inwardly rectifying potassium channel KCNH2 (Q12809 whole entry): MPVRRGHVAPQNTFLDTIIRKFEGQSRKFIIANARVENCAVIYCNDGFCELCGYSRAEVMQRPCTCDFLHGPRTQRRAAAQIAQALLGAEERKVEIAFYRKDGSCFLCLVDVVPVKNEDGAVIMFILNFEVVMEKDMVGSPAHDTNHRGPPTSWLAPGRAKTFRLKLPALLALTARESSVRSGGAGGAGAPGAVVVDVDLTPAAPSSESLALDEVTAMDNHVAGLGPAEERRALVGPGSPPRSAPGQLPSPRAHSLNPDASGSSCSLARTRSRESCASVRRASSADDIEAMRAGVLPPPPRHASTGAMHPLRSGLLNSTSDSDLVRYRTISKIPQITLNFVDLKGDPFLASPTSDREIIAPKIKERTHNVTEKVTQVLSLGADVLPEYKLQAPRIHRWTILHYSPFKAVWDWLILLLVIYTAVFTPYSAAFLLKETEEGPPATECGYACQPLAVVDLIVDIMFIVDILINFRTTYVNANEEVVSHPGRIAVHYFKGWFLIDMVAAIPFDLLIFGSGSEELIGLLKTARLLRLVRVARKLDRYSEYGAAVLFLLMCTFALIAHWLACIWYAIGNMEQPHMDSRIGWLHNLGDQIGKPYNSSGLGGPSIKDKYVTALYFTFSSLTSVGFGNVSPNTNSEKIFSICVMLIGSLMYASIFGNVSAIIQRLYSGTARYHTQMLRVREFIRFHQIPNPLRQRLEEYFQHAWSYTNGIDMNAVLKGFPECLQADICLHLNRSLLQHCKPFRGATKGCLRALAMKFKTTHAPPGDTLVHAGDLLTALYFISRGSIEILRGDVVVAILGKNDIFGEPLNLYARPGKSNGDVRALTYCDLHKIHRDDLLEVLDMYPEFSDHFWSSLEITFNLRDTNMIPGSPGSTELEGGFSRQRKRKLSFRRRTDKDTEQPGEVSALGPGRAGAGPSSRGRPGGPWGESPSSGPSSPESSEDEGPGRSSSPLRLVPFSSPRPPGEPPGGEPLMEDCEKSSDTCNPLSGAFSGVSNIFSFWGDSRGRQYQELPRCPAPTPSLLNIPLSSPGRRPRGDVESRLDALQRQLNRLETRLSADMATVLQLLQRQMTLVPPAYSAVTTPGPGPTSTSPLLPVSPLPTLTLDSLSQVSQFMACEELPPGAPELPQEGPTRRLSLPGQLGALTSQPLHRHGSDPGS
# Chain of Dihydrofolate reductase (P00374 whole entry): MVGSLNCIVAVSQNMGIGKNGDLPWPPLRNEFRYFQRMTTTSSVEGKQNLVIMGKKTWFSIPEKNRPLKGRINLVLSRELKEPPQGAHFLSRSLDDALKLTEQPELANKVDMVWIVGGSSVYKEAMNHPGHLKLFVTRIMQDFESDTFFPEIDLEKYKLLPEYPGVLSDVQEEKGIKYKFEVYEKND
structure (smiles),measurement,setting,value
O=c1c(O)c(-c2cccc(O)c2)oc2ccc(O)cc12,Drug uptake,[1],Not Active
same,MNTC at 72 h,[2],> 100 µM
same,IC50,[3],4.3 µM
same,IC50,Dihydrofolate reductase,50 µM
same,CI,[4],>1
same,IC50,Cytochrome P450 2D6,> 10 µM
same,MNTC at 72 h,[5],> 100 µM
same,IC50,[6],99.3 µM
same,Activity,A549,Non-Toxic
same,IC50,Cytochrome P450 2C19,> 10 µM
same,inhibition,Trypanosoma brucei [7],96%
same,IC50,Cytochrome P450 2C9,> 10 µM
same,selectivity ratio,in vitro,7
same,Activity,[8],Active
same,IC50,Cytochrome P450 1A2 [9],6.1 µM
same,Drug uptake,[10],Not Active
same,half-life,[11],7.6 min
same,IC50,Cytochrome P450 3A4,> 10 µM
same,Drug uptake,[12],Not Active
same,inhibition,[13],inactive
same,Drug uptake,[14],Not Active
same,Activity,786-0,Non-Toxic
same,CC50 at 72 h,[15],53 µM
same,inhibition (INH),Cytochrome P450 1A2 [16],Not Active
same,EC50,[17],5.7 µM
same,inhibition,Leishmania mexicana [18],42 to 43%
same,inhibition,Leishmania mexicana [19],86%
same,EC50,[20],7.56 µM
same,solubility,[21],Soluble
same,EC50,[22],3.27 µM
same,inhibition,Trypanosoma brucei [23],42 to 43%
same,Activity,WI-38,Non-Toxic
